# Patent US20250057951A1, “DISCERNIBLE CELL SURFACE PROTEIN VARIANTS OF CD117 FOR USE IN CELL THERAPY” (UNIVERSITÄT BASEL, priority 2021, published 2025)
# What was measured:
# wild type TF-1 cells = assay: Inhibition of SCF-dependent proliferation, wild type TF-1 cells; type: cell-based, human; conditions: 100 ng/ml SCF; increasing concentrations; 3 days
# Protocol: (§1) SCF-dependent proliferation is another function of CD117. SCF-dependent proliferation was measured as follows: TF-1 cells were seeded at a cell concentration of 150 000 cells/ml in sterile, white cell culture treated plates in RPMI Media+10% FCS. Cells were treated with 100 ng/ml of SCF and a titration of various CD117 antibodies or an isotype control antibody at different concentrations. After 3 days of incubation a CellTiter-Glo 2.0 assay (Promega) was performed and luminescence was read in a luminometer (e.g. Envision or Phera Star plate readers).
# (§2) Next, proliferation of the variants was tested with increasing concentrations of RefMab #1 at a constant concentration of SCF (100 ng/ml). TF-1 cells were seeded at a cell concentration of 150 000 cells/ml in sterile, white cell culture treated plates with transparent bottom in RPMI+GlutaMax+10% FCS and a fix concentration of 100 ng/ml SCF in the media, Cells were treated with different concentrations of RefMab #1. After 3 days of incubation a CellTiter-Glo 2,0 assay (Promega) was performed, luminescence was read in a luminometer (Envision plate reader).
# [1] = test system: TF-1 cells with knock-ins of CD117 variants; assay: Inhibition of SCF-dependent proliferation, TF-1 cells with CD117 variant knock-in; type: cell-based, human; conditions: 100 ng/ml SCF; increasing concentrations; 3 days; E73K; all variants tested
# Protocol: as §1
# CD117 wild-type TF-1 cells were compared to TF1 cells with a E73K knock in. […] Both KI1 and KI2 were obtained upon sorting the edited TF1 cells using the SONY MA900, removing any wild-type and knock out cells from the final subsets, thus yielding high purity of knock in.
# as §2
# CD117 = assay: Blocking of SCF-induced CD117 phosphorylation (Tyr719 ELISA), wild type TF-1 cells; type: cell-based, human; conditions: 0.5 ug/mL antibody or 500 nM avapritinib; 100 ng/ml SCF 5 minutes
# Protocol: (§3) SCF-dependent phosphorylation is another function of CD117. SCF-dependent phosphorylation was measured using TF-1 cells expressing CD117 (as shown in previous experiments). TF-1 cells were seeded at a concentration of 1 million cells/ml in 1 ml of Medium (RPMI1640 supplemented with GlutaMAX+10% heat inactivated FBS) in a 6-well plate. Cells were treated with 0.5 ug/mL antibody or 500 nM avapratinib. Cells were then treated with 100 ng/ml recombinant human SCF (1 mg/ml PeproGMP® Recombinant Human SCF) for 5 minutes, before cell collection. Cells were washed with ice-cold PBS, before resuspending cells in 250 μL Lysis Buffer (Lysis buffer from Signaling containing Protease Inhibitor and Phosphatase Inhibitor). Cells were flash frozen in liquid nitrogen and thawed at 37° C. twice, before freezing them at −80° C. until further usage. Undiluted samples were thawed and processed according to the manufacturers protocol for the PathScan® Phospho-c-Kit (Tyr719) Sandwich ELISA Kit (Cell Signaling). Absorbance (OD_450 nm) was assessed using the Envision (Perkin Elmer).
# (§4) TF-1 cells (wild type, and variants E73K, E73Y, D121K, S123F and S123K of CD117) were seeded at a concentration of 1 million cells/mL in 2 ml of Medium (RPMI1640 supplemented with GlutaMAX+10% heat inactivated FBS) in a 6-well plate. Cells were pre-treated with 0.5 μg/ml of antibodies Refmab #1-Ernie or Refmab #1-Bert for 30 minutes, before adding 100 ng/ml recombinant human SCF (1 mg/mL PeproGMP® Recombinant Human SCF) for 5 minutes. Cells were collected, washed once with ice-cold PBS and resuspended in 500 μL Lysis Buffer (Lysis buffer from Signaling containing Protease Inhibitor and Phosphatase Inhibitor). Cells were then flash frozen in liquid nitrogen and thawed at 37° C. twice, before freezing them at −80° C. until further usage. Undiluted samples were thawed and processed according to the manufacturers protocol for the PathScan Phospho-c-Kit (Tyr719) Sandwich ELISA Kit (Cell Signaling) or the Human c-Kit (CD117) ELISA Kit (Abcam). Absorbance (OD_450 nm) was assessed using the Envision (Perkin Elmer).
# variants of CD117 = assay: Blocking of SCF-induced CD117 phosphorylation (Tyr719 ELISA), TF-1 cells with CD117 variants; type: cell-based, human; conditions: 0.5 ug/mL antibody or 500 nM avapritinib; 100 ng/ml SCF 5 minutes
# Protocol: as §3, §4
# antibody Refmab #1 [2] = assay: Octet screen: binding of CD117 D1-2-3 variants to captured Refmab #1; conditions: nm shift at end of association, top analyte concentration (500 nM)
# Chain of antibody Refmab #1 (as listed by the source): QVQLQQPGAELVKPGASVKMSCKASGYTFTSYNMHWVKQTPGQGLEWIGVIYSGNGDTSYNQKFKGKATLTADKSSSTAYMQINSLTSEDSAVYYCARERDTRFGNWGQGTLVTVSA
# Chain of antibody Refmab #1 (as listed by the source): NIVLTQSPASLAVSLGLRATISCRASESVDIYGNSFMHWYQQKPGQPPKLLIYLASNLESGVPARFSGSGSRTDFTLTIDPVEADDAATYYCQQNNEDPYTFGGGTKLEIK
# Procedure, shortened: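 Refmab #1 captured on anti-human Fc biosensors; human CD117 D1-2-3 wt or variants flowed as analyte at 500, 50 and 5 nM, 25° C., 300 s association/900 s dissociation, buffer-referenced. Binding level at top concentration, end of association, expressed as percent of wild type; 1:1 fits where possible.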
# antibody Refmab #1 [3] = assay: Octet titration, steady state KD of CD117 D1-2-3 variants to Refmab #1; type: binding; conditions: nm shift higher than 0.1 nm counts as binding
# Protocol: To further characterize binding of Refmab #1 to CD117 D1-2-3 variants E73K, E73L, E73R, E73Y, D121H, D121K, S123K and S123F, the analytes were titrated at 7 different concentrations (from 2000 nM to 5 nM). Antibody Refmab #1 was captured by AHC biosensors for 300 s at 0.5 to 1 μg/mL. Association and dissociation to Refmab #1 was extended to 600 s and 1000 s, respectively. Steady state analysis was performed.
# TF-1 cells [4] = assay: SCF-dependent proliferation, SCF titration on TF-1 cells with CD117 variants (CellTiter-Glo); type: cell-based, human
# Procedure, shortened: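 TF-1 cells expressing wildtype or variant CD117 seeded at 150 000 cells/ml in RPMI+GlutaMax+10% FCS and titrated with SCF. Viability read by CellTiter-Glo 2.0 luminescence after 3 days; EC50 determined from two experiments, each in triplicate.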
# TF-1 cells [5] = assay: SCF-dependent phosphorylation of CD117 variants in TF-1 cells (Tyr719 ELISA); type: cell-based, human; conditions: 1-20 ng/ml SCF for 5 minutes
# Protocol: TF-1 cells (wild type, knock out, and variants E73K, D121K and S123K of CD117) were seeded at a concentration of 1 million cells/ml in 2 ml of Medium (RPMI1640 supplemented with GlutaMAX+10% heat inactivated FBS) in a 6-well plate. Cells were treated with 1-20 ng/ml recombinant human SCF (1 mg/ml PeproGMP Recombinant Human SCF) for 5 minutes, before cell collection. Cells were washed with ice-cold PBS, before resuspending cells in 500 μL Lysis Buffer (Lysis buffer from Signaling containing Protease Inhibitor and Phosphatase Inhibitor). Cells were flash frozen in liquid nitrogen and thawed at 37° C. twice, before freezing them at −80° C. until further usage. Undiluted samples were thawed and processed according to the manufacturers protocol for the PathScan Phospho-c-Kit (Tyr719) Sandwich ELISA Kit (Cell Signaling). Absorbance (OD_450 nm) was assessed using the Envision (Perkin Elmer).
# Refmab #1 = Refmab #1 titration on engineered TF-1 cells (flow cytometry); type: binding; conditions: 5-0.00015 μg/mL antibody; 4° C.
# Protocol: Binding of Refmab #1 was assessed in a flow cytometry assay. TF-1 cells were seeded at a cell concentration of 1,000,000 cells/ml in FACS Buffer (PBS+2% FCS+1 mM EDTA). After a Fc blocking using 1:20 diluted TruStain (BioLegend, #422302) in FACS buffer for 15 minutes at 4° C., cells were washed twice with FACS buffer. Subsequently, a SR-1 titration was added to the cells using 5-0.00015 μg/mL antibody for 30 minutes at 4° C. on a plate shaker. Cells were washed twice with FACS buffer and a secondary labelled antibody (IgG (H+L) Cross-Adsorbed Goat anti-Human, Alexa Fluor® 488, Invitrogen, A11013) was added to the cells for 30 minutes at 4° C. on a plate shaker. Cells were washed twice with FACS buffer, before adding 1:100 diluted solution of 7AAD staining (cell viability) in FACS buffer for a couple of minutes and analyzing the cells using the Novocyte Quanteon (Agilent).
# human wild-type CD117 [6] = target: T1, human wild-type CD117 (human, UniProt P10721 26-976); assay: flow cytometry, HEK-293T with wt CD117 vs vector alone, IgG at 0.125 µg/mL
# T1 construct: also called wt CD117; KIT
# Protocol: Binding of the antibodies to the transfected cells and the optimal assay conditions were evaluated in 384-well format. Detection of cellular expression was measured via high-throughput flow cytometry. Serial dilutions of each antibody were tested for immunoreactivity against cells expressing CD117 or vector alone. The optimal screening concentration for each antibody was determined based on the raw signal values and signal-to-background calculations. Each point represents the mean of four replicates.
# human wild-type CD117 [7] = target: T1, human wild-type CD117; assay: flow cytometry, HEK-293T with wt CD117 vs vector alone, Fab at 1.00 µg/mL
# [8] = titration of SCF, 3 days, TF-1 cells with the CD117 variant
molecule,measurement,setting,value
"Cn1cc(-c2cc3c(N4CCN(c5ncc([C@@](C)(N)c6ccc(F)cc6)cn5)CC4)ncnn3c2)cn1 [avapritinib, reference compound]",effect on SCF-dependent proliferation of wild type TF-1 cells,wild type TF-1 cells,no proliferation
same,effect on SCF-dependent proliferation of TF-1 cells with CD117 variants,[1],no proliferation
same,"blocking of SCF-induced phosphorylation, wild type cells",CD117,blocked
same,"blocking of SCF-induced phosphorylation, E73K variant",variants of CD117,still blocks
S123K: variant of human CD117 with substitution S123K,binding to Refmab #1 compared to wild type,antibody Refmab #1 [2],particular strong decrease in binding
same,binding of Refmab #1 at 2000 nM variant,antibody Refmab #1 [3],No binding
same,EC50 Average,TF-1 cells [4]; average of two experiments,3.54 ± 0.23 ng/mL
same,EC50 Experiment #1,TF-1 cells [4]; [8],3.76 ng/mL
same,EC50 Experiment #2,TF-1 cells [4]; [8],3.31 ng/mL
same,SCF-dependent phosphorylation at position Tyr719 of CD117,TF-1 cells [5],showed a SCF-dependent phosphorylation
same,Binding of Refmab #1 to TF-1 cells expressing the CD117 variant,Refmab #1,completely abolished
"Refmab #4 (antibody, V domains shown) VH: EVQLVESGGGLVQPGGSLRLSCAASGFSISVYMMHWVRQAPGKGLEWVASIYPYSGYTYYADSVKGRFTISADTSKNTAYLQMNSLRAEDTAVYYCARYVYHALDYWGQGTLVTVSS VL: DIQMTQSPSSLSASVGDRVTITCRASQSVSSAVAWYQQKPGKAPKLLIYSASSLYSGVPSRFSGSRSGTDFTLTISSLQPEDFATYYCQQWAVHSLITFGQGTKVEIKR",Signal:Background,human wild-type CD117 [6],7 ratio to background
"Refmab #4 Fab fragment (Fab, V domains shown) VH: EVQLVESGGGLVQPGGSLRLSCAASGFSISVYMMHWVRQAPGKGLEWVASIYPYSGYTYYADSVKGRFTISADTSKNTAYLQMNSLRAEDTAVYYCARYVYHALDYWGQGTLVTVSS VL: DIQMTQSPSSLSASVGDRVTITCRASQSVSSAVAWYQQKPGKAPKLLIYSASSLYSGVPSRFSGSRSGTDFTLTISSLQPEDFATYYCQQWAVHSLITFGQGTKVEIKR",Signal:Background,human wild-type CD117 [7],6 ratio to background
"Refmab #5 (antibody, V domains shown) VH: EVRLVESEGGLVQPRSSMKLSCTASGFTFSDYYMAWVRQVPEKGLEWVANINYDGSSTYYLDSLKSRFIISRDNAKNILYLQMSSLKSEDTATYYCARGDYYGTTYWYFDVWGTGTTVTVSS VL: DIQMTQTTSSLSASLGDRVTISCRASQDISNYLNWYQQKPDGTVKLLIYYTSRLQSGVPSRFSGSGSGTDYSLTISNLEQEDIATYFCQQGKKLWSFGGGTKLEIKR",Signal:Background,human wild-type CD117 [6],10 ratio to background
"Refmab #5 Fab fragment (Fab, V domains shown) VH: EVRLVESEGGLVQPRSSMKLSCTASGFTFSDYYMAWVRQVPEKGLEWVANINYDGSSTYYLDSLKSRFIISRDNAKNILYLQMSSLKSEDTATYYCARGDYYGTTYWYFDVWGTGTTVTVSS VL: DIQMTQTTSSLSASLGDRVTISCRASQDISNYLNWYQQKPDGTVKLLIYYTSRLQSGVPSRFSGSGSGTDYSLTISNLEQEDIATYFCQQGKKLWSFGGGTKLEIKR",Signal:Background,human wild-type CD117 [7],7 ratio to background
